In patent publication US5098930A, “Heterocyclic derivatives” (Imperial Chemical Industries PLC, priority 1988, dated 1992):

Assays:
5-LO [1] = target: T1, 5-LO (Homo sapiens, UniProt P09917); assay: test b) in vitro heparinised human blood, A23187 challenge, LTB4 radioimmunoassay; assay type: cell-based
T1 construct: incubating a test compound with heparinised human blood; endogenous in cells; host or cells: blood cells in heparinised human blood
T1 sequence (P09917 1-674): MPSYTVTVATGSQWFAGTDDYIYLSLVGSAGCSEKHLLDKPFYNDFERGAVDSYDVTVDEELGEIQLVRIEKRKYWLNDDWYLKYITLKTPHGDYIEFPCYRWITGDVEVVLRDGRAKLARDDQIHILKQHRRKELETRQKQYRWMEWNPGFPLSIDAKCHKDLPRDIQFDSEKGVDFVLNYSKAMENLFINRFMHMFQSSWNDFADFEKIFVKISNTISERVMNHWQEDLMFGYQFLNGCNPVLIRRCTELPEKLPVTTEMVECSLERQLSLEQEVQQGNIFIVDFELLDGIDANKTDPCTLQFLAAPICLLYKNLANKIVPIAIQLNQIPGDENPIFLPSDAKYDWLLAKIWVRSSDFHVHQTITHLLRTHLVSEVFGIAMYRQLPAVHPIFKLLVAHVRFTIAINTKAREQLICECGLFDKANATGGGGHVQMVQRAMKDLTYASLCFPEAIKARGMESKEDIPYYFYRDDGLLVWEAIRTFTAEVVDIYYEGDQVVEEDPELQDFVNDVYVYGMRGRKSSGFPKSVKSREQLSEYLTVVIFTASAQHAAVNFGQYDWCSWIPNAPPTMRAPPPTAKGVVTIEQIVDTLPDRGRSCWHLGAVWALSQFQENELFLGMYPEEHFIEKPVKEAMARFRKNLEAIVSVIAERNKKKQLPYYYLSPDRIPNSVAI
Experimental: b) An in vitro assay system involving incubating a test compound with heparinised human blood, prior to challenge with the calcium ionophore A23187 and then indirectly measuring the inhibitory effects on 5-LO by assaying the amount of LTB4 using the specific radioimmunoassay described by Carey and Forder (F. Carey and R. A. Forder, Brit. […] This test provides an indication of the effects of a test compound against 5-LO and also cyclooxygenase in the presence of blood cells and proteins. It permits the selectivity of the inhibitory effect on 5-LO or cyclooxygenase to be assessed.

cyclooxygenase = target: T2, cyclooxygenase (Homo sapiens, UniProt P23219); assay: test b) in vitro heparinised human blood, A23187 challenge, TxB2 radioimmunoassay; assay type: cell-based
T2 construct: incubating a test compound with heparinised human blood; endogenous in cells; host or cells: blood cells (platelets by own knowledge) in heparinised human blood
Experimental: As stated previously, the heterocyclic derivatives of the formula I are inhibitors of the enzyme 5-LO.
b) An in vitro assay system involving incubating a test compound with heparinised human blood, prior to challenge with the calcium ionophore A23187 and then indirectly measuring the inhibitory effects on 5-LO by assaying the amount of LTB4 using the specific radioimmunoassay described by Carey and Forder (F. Carey and R. A. Forder, Brit. J. Pharmacol. 1985, 84, 34P) which involves the use of a protein-LTB4 conjugate produced using the procedure of Young et alia (Prostaglandins, 1983, 26(4), 605-613). The effects of a test compound on the enzyme cyclooxygenase (which is involved in the alternative metabolic pathway for arachidonic acid and gives rise to prostaglandins, thromboxanes and related metabolites) may be measured at the same time using the specific radioimmunoassay for thromboxane B2 (TxB2) described by Carey and Forder (see above). This test provides an indication of the effects of a test compound against 5-LO and also cyclooxygenase in the presence of blood cells and proteins. It permits the selectivity of the inhibitory effect on 5-LO or cyclooxygenase to be assessed.

5-LO [2] = target: T3, 5-LO (Rattus norvegicus, UniProt P12527); assay: test c) ex vivo assay, oral administration, blood collection, A23187 challenge, radioimmunoassay of LTB4; assay type: in vivo
T3 construct: blood collection, heparinisation, challenge with A23187 and radioimmunoassay of LTB4 and TxB2; endogenous in cells
T3 sequence (P12527 1-673): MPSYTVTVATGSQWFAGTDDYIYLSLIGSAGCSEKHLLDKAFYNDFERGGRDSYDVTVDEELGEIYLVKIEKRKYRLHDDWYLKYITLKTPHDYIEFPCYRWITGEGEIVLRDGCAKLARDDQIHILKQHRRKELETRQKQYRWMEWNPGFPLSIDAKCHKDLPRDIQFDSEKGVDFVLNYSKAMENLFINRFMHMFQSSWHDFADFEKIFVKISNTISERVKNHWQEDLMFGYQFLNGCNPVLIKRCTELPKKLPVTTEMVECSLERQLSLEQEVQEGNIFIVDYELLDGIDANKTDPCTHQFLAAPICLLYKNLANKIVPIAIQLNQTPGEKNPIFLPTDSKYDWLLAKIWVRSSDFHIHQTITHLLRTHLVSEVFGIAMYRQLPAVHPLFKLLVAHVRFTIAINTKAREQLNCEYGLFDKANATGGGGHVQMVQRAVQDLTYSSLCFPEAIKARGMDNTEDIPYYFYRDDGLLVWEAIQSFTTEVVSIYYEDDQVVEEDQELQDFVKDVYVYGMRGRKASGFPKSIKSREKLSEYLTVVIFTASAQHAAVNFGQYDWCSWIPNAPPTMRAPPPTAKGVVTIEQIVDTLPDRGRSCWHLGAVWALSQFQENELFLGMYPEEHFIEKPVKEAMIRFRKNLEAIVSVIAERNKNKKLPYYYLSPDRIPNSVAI
Experimental: c) An ex vivo assay system, which is a variation of test b) above, involving administration of a test compound (usually orally as the suspension produced when a solution of the test compound in dimethylsulphoxide is added to carboxymethylcellulose), blood collection, heparinisation, challenge with A23187 and radioimmunoassay of LTB4 and TxB2. This test provides an indication of the bioavailability of a test compound as an inhibitor of 5-LO or cyclooxygenase.

T2 sequence (P23219 24-599): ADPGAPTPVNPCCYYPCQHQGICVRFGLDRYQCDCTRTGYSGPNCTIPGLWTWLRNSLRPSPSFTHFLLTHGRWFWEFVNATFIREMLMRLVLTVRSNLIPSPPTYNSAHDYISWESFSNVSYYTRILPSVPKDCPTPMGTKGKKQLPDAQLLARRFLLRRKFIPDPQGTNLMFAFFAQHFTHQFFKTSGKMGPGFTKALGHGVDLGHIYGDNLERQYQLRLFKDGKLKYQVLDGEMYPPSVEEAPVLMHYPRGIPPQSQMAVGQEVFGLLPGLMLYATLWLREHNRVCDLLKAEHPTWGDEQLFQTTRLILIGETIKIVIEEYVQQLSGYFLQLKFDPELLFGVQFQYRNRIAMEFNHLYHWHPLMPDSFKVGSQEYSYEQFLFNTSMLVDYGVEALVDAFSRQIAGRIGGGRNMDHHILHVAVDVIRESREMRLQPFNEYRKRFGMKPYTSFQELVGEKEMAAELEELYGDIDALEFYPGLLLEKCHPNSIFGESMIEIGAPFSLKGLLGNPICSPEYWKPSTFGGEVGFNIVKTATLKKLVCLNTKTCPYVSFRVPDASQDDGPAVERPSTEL

IC50 (5-LO [1]): 100 nM | IC50 (cyclooxygenase): > 40000 nM | ED50 (5-LO [2]): 5 mg/kg
SMILES: COC1(c2cccc(OCc3ccc4ccccc4c3)c2)CCOCC1 [4-methoxy-4-[3-(naphth-2-ylmethoxy)phenyl]tetrahydropyran]
